{"source": "patent US20080255186A1", "about": "“Pyrazolo[3,4-B]Pyridine Compound, and Its Use as a Pde4 Inhibitor” (priority 2005, published 2008)", "origin": "cited, not measured here", "key": {"COPD patients": {"tested_on": "COPD patients", "settings": "cited from earlier work"}, "[1]": {"tested_on": "atopic dermatitis patients", "settings": "0.5% ointment, twice daily topical application; cited from earlier work"}, "[2]": {"tested_on": "atopic dermatitis patients", "settings": "0.15% cream vs vehicle and hydrocortisone 17-butyrate (0.1%) cream; cited from earlier work"}, "[3]": {"tested_on": "humans with histories of allergic rhinitis", "settings": "orally 500 ug once daily for 9 days, compared to placebo; cited from earlier work"}}, "data": [{"smiles": "COc1ccc([C@]2(C#N)CC[C@@H](C(=O)O)CC2)cc1OC1CCCC1", "note": "[cilomilast]", "values": [{"measurement": "Effect on forced expiratory volume (FEV1) in COPD patients", "setting": "COPD patients; cilomilast: 15 mg orally twice daily", "value": "appears to improve forced expiratory volume"}, {"measurement": "Antiinflammatory effects in COPD patients", "setting": "COPD patients; human, in vivo", "value": "appears to have antiinflammatory effects in COPD patients"}]}, {"smiles": "COc1ccc(C2CNC(=O)NC2)cc1O[C@H]1C[C@@H]2CC[C@H]1C2", "note": "[CP80,633]", "values": [{"measurement": "Effect on inflammatory parameters in atopic dermatitis patients", "setting": "[1]", "value": "reductions of inflammatory parameters"}]}, {"smiles": "Nc1nc2c([nH]1)c(=O)n(CC1CC1)c(=O)n2CC1CC1", "note": "[cipamfylline]", "values": [{"measurement": "Efficacy in treatment of atopic dermatitis patients", "setting": "[2]", "value": "significantly more effective than vehicle, but significantly less effective than hydrocortisone 17-butyrate (0.1%) cream"}]}, {"smiles": "O=C(Nc1c(Cl)cncc1Cl)c1ccc(OC(F)F)c(OCC2CC2)c1", "note": "[roflumilast]", "values": [{"measurement": "Effect on rhinal airflow", "setting": "[3]", "value": "effective in improving rhinal airflow"}]}]}
